Legend:
[1] = tested on: neonatal rat cardiac muscle cells; experiment: Protein synthesis in neonatal rat cardiac muscle cells in vitro; type: cell-based; settings: FIG. 2 (neonatal rat) and FIG. 20
Description: FIG. 2. A61603 is adaptive in neonatal cardiac muscle cells.
FIG. 20. A61603 is adaptive in cardiac muscle cells.

[2] = Blood pressure after acute intraperitoneal injection, indwelling arterial catheter; type: in vivo, mouse; settings: 10 ng/kg injected acutely intraperitoneal
Experimental: The classic effect of alpha-1-agonists is to increase BP by stimulating smooth muscle cells to contract. It could be a disadvantage in heart failure (HF) therapy to increase BP excessively. On the other hand, all current recommended drugs in HF reduce BP, and a drug that increased BP slightly might have a strong therapeutic advantage. […] The foregoing experiments provided the rationale to test treatment with A61603 at 10 ng/kg/d in a mouse model of cardiomyopathy and HF.

[3] = Doxorubicin cardiomyopathy model in adult mice; type: in vivo, mouse
Experimental: FIG. 6. A61603 prevents doxorubicin cardiomyopathy. DOX was given to adult mice in a single intraperitoneal dose of 25 mg/kg. A61603 was infused subcutaneously (osmotic minipump) for 1 week (top left). We monitored mouse survival over the week, and at the end of 1 week measured heart cell damage and function.
In summary, the alpha-1A agonist A61603 is protective and adaptive in cardiac muscle cells in vitro and in vivo. […] A61603 protects against mortality and cardiomyopathy, by preventing cell death and fibrosis. We chose a model of cardiomyopathy caused by a cancer drug, the anthracycline doxorubicin (DOX). Cancer drug cardiotoxicity is a common and growing problem. We used the same protocol that tested A61603 BP and signaling effects (FIG. 5).

[4] = Pressure overload cardiomyopathy (transverse aortic constriction, TAC) model; type: in vivo, mouse
Description: FIG. 7. A61603 rescues pressure overload cardiomyopathy. Mice had echo 2 weeks after TAC, at which time they were randomized to treatment with A61603, at the same low dose, or vehicle. Fractional shortening, an index of cardiac function, was depressed by TAC, and improved with A61603, but not with vehicle.
FIG. 8. A61603 in pressure overload cardiomyopathy improves growth and protection, and reduces fibrosis.
Studies in mice looking at alpha-1 agonist therapy, using A61603, in a model of heart failure due to pressure overload (transverse aortic constriction model). A model of pressure overload was tested for 2 reasons: (1) test generality of A61603 effects in different types of cardiomyopathy; and (2) test treatment (rescue), rather than prevention, i.e. A61603 given at an interval of time after injury, when cardiomyopathy was already manifest. We used an adult mouse model of transverse aortic constriction (TAC), with the aorta surgically narrowed, so that the heart had to pump against an increased pressure (pressure overload). […] A61603 treatment rescued the cardiomyopathy, as measured by heart function (FIG. 7). […] Thus improvement in function caused by A61603 was again due to direct effects on cardiac muscle cells. The alpha-1A agonist A61603 at a low dose rescues (e.g. treats) cardiomyopathy due to pressure overload, an injury that simulates several types of cardiac disease, and the mechanism is improvement of cardiac myocytes.

[5] = Ischemic, post-myocardial infarction (LAD ligation) cardiomyopathy model; type: in vivo, mouse
Description: FIG. 9. A61603 rescues ischemic, post-myocardial infarction (MI) cardiomyopathy. Mice had echo 4 weeks after LAD ligation (MI), at which time they were randomized to treatment with A61603, at the same low dose, or vehicle.
FIG. 10. A61603 in ischemic, post-MI cardiomyopathy improves growth and protection, and reduces fibrosis. Values are normalized to mice treated with vehicle. Mice treated with A61603 had smaller atria, less fibrosis, higher fractional shortening (FS), smaller left ventricle end diastolic diameter (LVEDD), and larger myocyte size in the surviving heart (MC CSA). The size of the MI was unchanged, as expected because treatment started 4 weeks after LAD ligation, by which time the MI had healed.
Studies in mice looking at alpha-1 agonist therapy, using A61603, in a model of heart failure and cardiomyopathy due to myocardial infarction (heart attack). We used an animal model of myocardial infarction to test whether the alpha-1A agonist A61603 could rescue (e.g. treat) cardiomyopathy, when treatment was initiated at some time after injury (e.g. after the acute period was complete). Rescue mimics what is seen commonly in the clinic, where patients are admitted with HF, caused by a cardiomyopathy that has been present for months or years. This model was a model of ischemic, post-myocardial infarction (MI) cardiomyopathy. Ischemic heart disease caused by coronary atherosclerosis is extremely common and ischemic and overload cardiomyopathies associated with these diseases comprise the largest group of patients with HF. We used a mouse model of coronary ligation to cause MI. The mouse coronary ligation was permanent, however, patients typically have some form of reperfusion (e.g. angioplasty). We used a mouse model where the MI is healed completely, which is typical for patients admitted with HF late after MI. A61603 treatment rescued (e.g treated) the cardiomyopathy, as measured by heart function (FIG. 9A-B).
The improvement in function caused by A61603 after MI was again due to direct effects on ardiac muscle cells (FIG. 10). In this case, the effect was to increase the size of muscle cells in the surviving heart wall, helping restore the total amount of contracting heart muscle. There was also less fibrosis than control. The smaller weight of the atria indicates lower pressures within the left ventricle, a beneficial functional outcome, and the smaller diameter of the left ventricle indicates less cardiac enlargement, also a beneficial outcome.

cardiac myocytes = experiment: Cardiac cell protective and adaptive (anabolic) effects in vitro, comparison of alpha-1-agonists; type: cell-based; settings: neonatal rat and adult mouse cardiac myocytes, FIG. 1-3
α1A receptors = settings: cited from earlier work

CS(=O)(=O)Nc1c(O)ccc2c1CCCC2C1=NCCN1 (stereo not drawn) [A61603, N-[1-(4,5-dihydro-1H-imidazol-2-yl)-6-hydroxy-tetralin-5-yl]methanesulfonamide]
activation of protein synthesis [1]: high efficacy and potency | BP [2]: does not increase BP | survival after DOX ([3]; DOX 25 mg/kg ip single dose, A61603 sc infusion 1 week, vs vehicle): markedly improved | cell death by apoptosis (caspase 3/7 activity and TUNEL staining) ([3]; after DOX, end of 1 week): improved | cell death by necrosis (serum CK, creatine kinase) ([3]; after DOX, end of 1 week): improved | indices of myocardial fibrosis ([3]; after DOX, end of 1 week): improved | protective effect on survival in alpha-1A knockout (KO) ([3]; alpha-1A KO mice after DOX): lost | heart function by echocardiography (fractional shortening) ([3]; surviving mice, end of 1 week): improved | degree of overload (the gradient) ([4]; A61603 vs vehicle group after TAC): the same in both groups | adaptive proteins (myosin or MF20 and beta-myosin or bMHC) ([4]; TAC): more adaptive proteins | collagen fibrosis (Col I) ([4]; TAC): less collagen fibrosis | heart weight normalized to body weight (HW/BW) ([4]; TAC): less abnormal enlargement | protection (ERK) ([4]; TAC): higher protection | fractional shortening ([4]; treatment started 2 weeks after TAC, low dose, vs vehicle): improved | atria size ([5]; post-MI, normalized to vehicle): smaller atria | fibrosis ([5]; post-MI, normalized to vehicle): less fibrosis | left ventricle end diastolic diameter (LVEDD) ([5]; post-MI, normalized to vehicle): smaller | myocyte size in the surviving heart (MC CSA) ([5]; post-MI, normalized to vehicle): larger | fractional shortening (FS) ([5]; post-MI, normalized to vehicle, FIG. 10): higher | size of the MI ([5]; post-MI, treatment started 4 weeks after LAD ligation): unchanged | fractional shortening ([5]; treatment started 4 weeks after LAD ligation (MI), low dose, vs vehicle): stayed the same or improved | potency and efficacy relative to several other alpha-1-agonists (cardiac myocytes): more potent (i.e. worked at a lower dose) and efficacious (i.e. had a larger total effect) | potency at α1A receptors relative to α1B or α1D sites (α1A receptors; Knepper et al. (1995)): at least 35 fold | potency as α1A AR agonist relative to phenylephrine, methoxamine and midodrine (α1A receptors): more potent

Source: US9364462B2, “Alpha-1-adrenergic receptor agonist therapy” (The Regents of the University of California, priority 2012, dated 2016)
